Data as given in the supplement of paper PMC12317010.
Structures can show the parent of a compound that is named as a salt.

Test: collision cross section in nitrogen (drift tube, single-field); higher = larger gas-phase ion size
[1] = ion type: [M+H], ion source: APCI, ion mode: Positive
[2] = ion type: [M+H], ion source: ESI, ion mode: Positive
[3] = ion type: [M+Na], ion source: ESI, ion mode: Positive
[4] = ion type: [M-H], ion source: ESI, ion mode: Negative
[5] = ion type: [M+], ion source: APCI, ion mode: Positive
[6] = ion source: ESI, ion mode: Positive, ion type: [M]+ (permanent cation)
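Further: chemical standards at 10 µM analysed by drift tube IMS-QTOF MS in about 3.95 torr nitrogen, mean of duplicate injections differing ≤1%, mass error below 10 ppm.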

| SMILES | collision cross section in nitrogen [1] [Å²] | collision cross section in nitrogen [2] [Å²] | collision cross section in nitrogen [3] [Å²] | collision cross section in nitrogen [4] [Å²] | further results |
| --- | --- | --- | --- | --- | --- |
| O=C(N[C@@H](Cc1ccccc1)[C@@H](O)C(=O)N1C[C@@H](O)[C@@H](O)C1)c1cc2cc(Cl)ccc2[nH]1 [Ingliforib] | 215.9 | 216 | 220.4 | 206.2 |  |
| NCC1(Cc2noc(=O)[nH]2)CCCCC1 |  | 154 |  | 151.4 |  |
| NCCCOCCOCCOCCCN [3,3'-[Oxybis(ethane-2,1-diyloxy)]dipropan-1-amine] | 147.9 | 148.3 | 150.3 |  |  |
| CCCCCCCCn1sccc1=O [2-n-Octyl-4-isothiazolin-3-one] | 158.3 | 158 |  |  |  |
| CC(COc1ccc(Oc2ccccc2)cc1)Oc1ccccn1 (stereo unspecified) [Pyriproxyfen] | 184.3 | 184.3 | 185.4 |  |  |
| O=C1CC2(CCCC2)CC(=O)N1CCCCN1CCN(c2ncccn2)CC1 [Buspirone] | 199.2 | 199.2 | 201.6 | 202.9 | collision cross section in nitrogen [5]: 196.8 Å² |
| C[C@]12CC[C@H]3[C@@H](CCC4=CC(=O)CC[C@@]43C)[C@@H]1CC[C@@H]2C(=O)CO [21-Hydroxyprogesterone] |  | 185.7 |  | 186.5 |  |
| CCOC(=O)[C@@H](O)[C@H](O)C(=O)OCC [(-)-Diethyl-D-tartrate] |  |  | 153.6 |  |  |
| CC(CCCCN)C(C)(C)N (stereo unspecified) [Trimethylhexane-1,6-diamine] |  | 140.4 |  |  |  |
| C#CCOC(=O)[C@@H](C)Oc1ccc(Oc2ncc(Cl)cc2F)cc1 [Clodinafop-propargyl] |  | 178 | 176.2 |  |  |
| CC(C)c1nnc2ccc(-c3ocnc3-c3cc(F)ccc3F)cn12 | 177.3 | 177 | 196.3 | 178.7 |  |
| COP(=O)(NC(C)=O)SC (stereo unspecified) [Acephate] |  |  | 141 | 133.9 |  |
| Cn1cc(-c2ccccc2)c(=O)c(-c2cccc(C(F)(F)F)c2)c1 [1-Methyl-3-phenyl-5-(3-(trifluoromethyl)phenyl)-4-pyridone] | 179.6 | 179.8 | 187.5 | 178.9 |  |
| C=CC1(C)OC(=O)N(c2cc(Cl)cc(Cl)c2)C1=O (stereo unspecified) [Vinclozolin] |  |  |  | 154.4 |  |
| Oc1ccccc1-c1ccccc1 [Sodium 2-phenylphenate tetrahydrate] |  |  |  | 136.6 |  |
| O=S1(=O)OCC2C(CO1)C1(Cl)C(Cl)=C(Cl)C2(Cl)C1(Cl)Cl (stereo unspecified) [Endosulfan sulfate] |  |  |  | 173.3 |  |
| CCCCC(CC)COS(=O)(=O)O (stereo unspecified) [Sodium ethasulfate] |  |  |  | 150.5 |  |
| CC[C@H](C)C(=O)O[C@H]1C[C@H](O)C=C2C=C[C@H](C)[C@H](CC[C@@H](O)C[C@@H](O)CC(=O)O)[C@H]21 [Pravastatin sodium] |  |  | 206.7 | 201.5 |  |
| COc1ccc(CCN2CCC(Nc3nc4ccccc4n3Cc3ccc(F)cc3)CC2)cc1 [Astemizole] |  | 210.8 | 213.2 | 227.8 |  |
| C[N+]1(C)CCCCC1 [1,1-Dimethylpiperidinium chloride] |  |  |  |  | collision cross section in nitrogen [6]: 121.2 Å² |
| O=C(Nc1ccccc1)c1ccccc1O [Salicylanilide] | 144.8 |  |  | 145.5 |  |

| SMILES | collision cross section in nitrogen [1] [Å²] | collision cross section in nitrogen [2] [Å²] | collision cross section in nitrogen [3] [Å²] | collision cross section in nitrogen [4] [Å²] | further results |
| --- | --- | --- | --- | --- | --- |
| CC(=O)[C@@]1(O)CC[C@H]2[C@@H]3C[C@H](C)C4=CC(=O)C=C[C@]4(C)[C@@]3(F)[C@@H](O)C[C@@]21C [Fluorometholone] | 186.6 |  | 211.3 |  |  |
| CC(C)[N+](C)(CCOC(=O)C1c2ccccc2Oc2ccccc21)C(C)C [Propantheline bromide] |  |  |  |  | collision cross section in nitrogen [6]: 184.1 Å² |
| O=[N+]([O-])c1cc(C(F)(F)F)c(Cl)c([N+](=O)[O-])c1Nc1ncc(C(F)(F)F)cc1Cl [Fluazinam] |  |  |  | 182.2 |  |
| COc1cc([C@@H]2c3cc4c(cc3[C@@H](O[C@@H]3O[C@@H]5CO[C@@H](C)O[C@H]5[C@H](O)[C@H]3O)[C@H]3COC(=O)[C@H]23)OCO4)cc(OC)c1O [Etoposide] |  |  | 249.8 | 239.5 |  |
| CN(C)CCCNCCC#N [3-{[3-(Dimethylamino)propyl]amino}propanenitrile] | 130.8 | 131.9 |  |  |  |
| CCOC(=O)c1cn2nc(OP(=S)(OCC)OCC)cc2nc1C [Pyrazophos] | 192.5 | 191.7 | 195.9 |  |  |
| N[C@@H](Cc1ccc(O)c(O)c1)C(=O)O [Levodopa] |  |  |  | 141.6 |  |
| Cc1ccc(N)c([N+](=O)[O-])c1 [4-Methyl-2-nitroaniline] |  |  |  | 127.7 |  |
| C=CCc1ccc(OC(=O)Cc2ccccc2)c(OC)c1 [Eugenyl phenylacetate] |  |  | 175.7 |  |  |
| COc1ccc(CC#N)cc1 [4-Methoxyphenylacetonitrile] | 127.3 |  |  |  |  |
| CCCCOCCOCCOC(C)=O [Diethylene glycol monobutyl ether acetate] |  |  | 150.1 |  |  |
| NNc1nc(-c2ccc(N)cc2)cs1 [2-Hydrazino-4-(4-aminophenyl) thiazole] |  | 146.2 |  |  |  |
| O=C(O)C(F)(F)C(F)(F)C(F)(F)C(F)(F)C(F)(F)C(F)(F)C(F)(F)C(F)(F)C(F)(F)C(F)(F)F [Perfluoroundecanoic acid] |  |  |  | 183.9 |  |
| CCCC1C(CC)=CC(CC)=CN1c1ccccc1 (stereo unspecified) [3,5-Diethyl-1-phenyl-2-propyl-1,2-dihydropyridine] | 163.4 |  |  |  |  |
| COP(=S)(NC(C)C)Oc1ccc(C)cc1[N+](=O)[O-] (stereo unspecified) [Amiprofos-methyl] |  |  | 172.4 | 164.8 |  |
| O=C1OCCN1N=Cc1ccc([N+](=O)[O-])o1 [Furazolidone] |  |  |  | 150.8 |  |
| CCN(CC)CCNC(=O)c1c(C)[nH]c(/C=C2\C(=O)Nc3ccc(F)cc32)c1C [Sunitinib malate] |  | 207 | 214.3 |  |  |
| CCCCN(CCCC)SN(C)C(=O)Oc1cccc2c1OC(C)(C)C2 [Carbosulfan] | 188.3 | 188.3 | 204.7 |  |  |
| CCN(CCC#N)c1cccc(C)c1 [3-(Ethyl(3-methylphenyl)amino)propanenitrile] | 144.7 | 144.3 |  |  | collision cross section in nitrogen [5]: 143.6 Å² |
| c1ccc(N=Nc2ccccc2)cc1 [Azobenzene] | 139.5 |  |  |  |  |
| Cc1cccc(OP(=O)(Oc2cccc(C)c2)Oc2cccc(C)c2)c1 [Phosphoric acid, tris(3-methylphenyl) ester] | 188.7 | 188.6 | 198.9 |  |  |
